Results reported in patent publication US6737383B1, “Herbicidal oxadiazolidines” (priority 1999, dated 2004).

Key:
wheat = experiment: Test B pre/postemergence wheat; assay type: in vivo, Triticum aestivum
Procedure, shortened: (§1)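 Test chemicals in a non-phytotoxic solvent mixture with surfactant were sprayed preemergence onto planted seeds and postemergence onto plants 2 to 18 cm tall (1- to 4-leaf stage). After twelve to sixteen days in a greenhouse, injury was visually rated against untreated controls from 0 (no effect) to 10 (complete control).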

velvetleaf = experiment: Test B pre/postemergence velvetleaf; assay type: in vivo, Abutilon theophrasti
Procedure, shortened: as §1

crabgrass = experiment: Test B pre/postemergence crabgrass; assay type: in vivo, Digitaria sanguinalis
Procedure, shortened: as §1

surinam grass = experiment: Test B pre/postemergence surinam grass; assay type: in vivo, Brachiaria decumbens
Procedure, shortened: as §1

corn = experiment: Test B pre/postemergence corn; assay type: in vivo, Zea mays
Procedure, shortened: as §1

soybean = experiment: Test B pre/postemergence soybean; assay type: in vivo, Glycine max
Procedure, shortened: as §1

rape = experiment: Test B pre/postemergence rape; assay type: in vivo, Brassica napus
Procedure, shortened: as §1

pigweed = experiment: Test B pre/postemergence pigweed; assay type: in vivo, Amaranthus retroflexus
Procedure, shortened: as §1

sugar beet = experiment: Test B pre/postemergence sugar beet; assay type: in vivo, Beta vulgaris
Procedure, shortened: as §1

wild oat = experiment: Test B pre/postemergence wild oat; assay type: in vivo, Avena fatua
Procedure, shortened: as §1

purple nutsedge = experiment: Test B pre/postemergence purple nutsedge; assay type: in vivo, Cyperus rotundus
Procedure, shortened: as §1

morningglory = experiment: Test B pre/postemergence morningglory; assay type: in vivo, Ipomoea hederacea
Procedure, shortened: as §1

blackgrass = experiment: Test B pre/postemergence blackgrass; assay type: in vivo, Alopecurus myosuroides
Procedure, shortened: as §1

bedstraw = experiment: Test B pre/postemergence bedstraw; assay type: in vivo, Galium aparine; details: Rate 62 g/ha
Procedure, shortened: as §1

cocklebur = experiment: Test B pre/postemergence cocklebur; assay type: in vivo, Xanthium strumarium
Procedure, shortened: as §1

giant foxtail = experiment: Test B pre/postemergence giant foxtail; assay type: in vivo, Setaria faberii
Procedure, shortened: as §1

[1] = Postemergence, Rate 62 g/ha, scale of 0 to 10, 0 is no effect, 10 is complete control
[2] = Postemergence, Rate 125 g/ha, scale 0 to 10, 0 is no effect, 10 is complete control
[3] = Postemergence, Rate 500 g/ha, scale 0 to 10, 0 is no effect, 10 is complete control
[4] = Preemergence, Rate 62 g/ha, scale of 0 to 10 where 0 is no effect and 10 is complete control
[5] = Preemergence, Rate 125 g/ha, scale 0 to 10, 0 is no effect, 10 is complete control
[6] = Rate 250 g/ha, Postemergence, scale of 0 to 10 where 0 is no effect and 10 is complete control
[7] = Preemergence, Rate 500 g/ha, scale of 0 to 10 where 0 is no effect and 10 is complete control

With `CCCCn1c(=O)on(C(=O)N(c2ccc(Cl)cc2)C(C)C)c1=O` [Compound 527] the “Wheat plant response rating” value (wheat; [1]) was 0, the “Wheat plant response rating” value (wheat; [2]) was 0 and the “Plant response rating, Wheat” value (wheat; [3]) was 0. For the same compound, the “Plant response rating, Wheat” value (wheat; [4]) was 0, the “Wheat plant response rating” value (wheat; [5]) was 0 and the “Wheat plant response rating (0 to 10 scale)” value (wheat; Preemergence, Rate 250 g/ha) was 0. The “Plant response rating, Wheat” value (wheat; [6]) was 0, the “Velvetleaf plant response rating” value (velvetleaf; [1]) was 3 and the “Velvetleaf plant response rating” value (velvetleaf; [2]) was 2. For the same compound, the “Plant response rating, Velvetleaf” value (velvetleaf; [3]) was 3, the “Plant response rating, Velvetleaf” value (velvetleaf; [4]) was 0 and the “Velvetleaf plant response rating” value (velvetleaf; [5]) was 2. For the same compound, the “Velvetleaf plant response rating (0 to 10 scale)” value (velvetleaf; Preemergence, Rate 250 g/ha) was 2, the “Velvetleaf plant response rating” value (velvetleaf; [7]) was 2 and the “Plant response rating, Velvetleaf” value (velvetleaf; [6]) was 3. For the same compound, the “Crabgrass plant response rating” value (crabgrass; [1]) was 4, the “Crabgrass plant response rating” value (crabgrass; [2]) was 4 and the “Plant response rating, Crabgrass” value (crabgrass; [3]) was 10. The “Plant response rating, Crabgrass” value (crabgrass; [4]) was 9, the “Crabgrass plant response rating” value (crabgrass; [5]) was 10 and the “Crabgrass plant response rating (0 to 10 scale)” value (crabgrass; Preemergence, Rate 250 g/ha) was 10. The “Crabgrass plant response rating” value (crabgrass; [7]) was 10, the “Plant response rating, Crabgrass” value (crabgrass; [6]) was 9 and the “B. signalgrass plant response rating” value (surinam grass; [1]) was 0. For the same compound, the “B. signalgrass plant response rating” value (surinam grass; [2]) was 0, the “Plant response rating, B. signalgrass” value (surinam grass; [3]) was 9 and the “Plant response rating, B. signalgrass” value (surinam grass; [4]) was 2. The “B. signalgrass plant response rating” value (surinam grass; [5]) was 2, the “B. signalgrass plant response rating (0 to 10 scale, 0 is no effect, 10 is complete control)” value (surinam grass; Preemergence, Rate 250 g/ha) was 4 and the “Plant response rating, B. signalgrass” value (surinam grass; [6]) was 0. For the same compound, the “Corn plant response rating” value (corn; [1]) was 0, the “Corn plant response rating” value (corn; [2]) was 0 and the “Plant response rating, Corn” value (corn; [3]) was 0. For the same compound, the “Plant response rating, Corn” value (corn; [4]) was 0, the “Corn plant response rating” value (corn; [5]) was 0 and the “Corn plant response rating (0 to 10 scale)” value (corn; Preemergence, Rate 250 g/ha) was 0. The “Corn plant response rating” value (corn; [7]) was 0, the “Plant response rating, Corn” value (corn; [6]) was 0 and the “Soybean plant response rating” value (soybean; [1]) was 3. The “Soybean plant response rating” value (soybean; [2]) was 4, the “Plant response rating, Soybean” value (soybean; [3]) was 5 and the “Plant response rating, Soybean” value (soybean; [4]) was 0. For the same compound, the “Soybean plant response rating” value (soybean; [5]) was 0, the “Soybean plant response rating (0 to 10 scale)” value (soybean; Preemergence, Rate 250 g/ha) was 0 and the “Soybean plant response rating” value (soybean; [7]) was 0. For the same compound, the “Plant response rating, Soybean” value (soybean; [6]) was 4, the “Rape plant response rating” value (rape; [1]) was 0 and the “Rape plant response rating” value (rape; [2]) was 0. For the same compound, the “Plant response rating, Rape” value (rape; [3]) was 2, the “Plant response rating, Rape” value (rape; [4]) was 0 and the “Rape plant response rating” value (rape; [5]) was 2. The “Rape plant response rating (0 to 10 scale)” value (rape; Preemergence, Rate 250 g/ha) was 2, the “Plant response rating, Rape” value (rape; [6]) was 0 and the “Redroot pigweed plant response rating” value (pigweed; [1]) was 0. For the same compound, the “Redroot pigweed plant response rating” value (pigweed; [2]) was 0, the “Plant response rating, Redroot pigweed” value (pigweed; [3]) was 0 and the “Plant response rating, Redroot pigweed” value (pigweed; [4]) was 0. The “Redroot pigweed plant response rating” value (pigweed; [5]) was 4, the “Redroot pigweed plant response rating (0 to 10 scale)” value (pigweed; Preemergence, Rate 250 g/ha) was 4 and the “Redroot pigweed plant response rating” value (pigweed; [7]) was 4. For the same compound, the “Plant response rating, Redroot pigweed” value (pigweed; [6]) was 0, the “Sugarbeets plant response rating” value (sugar beet; [1]) was 0 and the “Sugarbeets plant response rating” value (sugar beet; [2]) was 0. The “Plant response rating, Sugarbeets” value (sugar beet; [3]) was 2, the “Plant response rating, Sugarbeets” value (sugar beet; [4]) was 0 and the “Sugarbeets plant response rating” value (sugar beet; [5]) was 6. The “Sugarbeets plant response rating (0 to 10 scale)” value (sugar beet; Preemergence, Rate 250 g/ha) was 6, the “Sugarbeets plant response rating” value (sugar beet; [7]) was 6 and the “Plant response rating, Sugarbeets” value (sugar beet; [6]) was 0. The “Wild oats plant response rating” value (wild oat; [1]) was 0, the “Wild oats plant response rating” value (wild oat; [2]) was 0 and the “Plant response rating, Wild oats” value (wild oat; [3]) was 0. For the same compound, the “Plant response rating, Wild oats” value (wild oat; [4]) was 0, the “Wild oats plant response rating” value (wild oat; [5]) was 0 and the “Wild oats plant response rating (0 to 10 scale)” value (wild oat; Preemergence, Rate 250 g/ha) was 3. The “Plant response rating, Wild oats” value (wild oat; [6]) was 0, the “Nutsedge plant response rating” value (purple nutsedge; [1]) was 0 and the “Plant response rating, Nutsedge” value (purple nutsedge; [4]) was 0. The “Nutsedge plant response rating” value (purple nutsedge; [5]) was 0, the “Nutsedge plant response rating (0 to 10 scale)” value (purple nutsedge; Preemergence, Rate 250 g/ha) was 0 and the “Nutsedge plant response rating” value (purple nutsedge; [7]) was 0. The “Plant response rating, Nutsedge” value (purple nutsedge; [6]) was 0, the “Morningglory plant response rating” value (morningglory; [1]) was 3 and the “Morningglory plant response rating” value (morningglory; [2]) was 3. The “Plant response rating, Morningglory” value (morningglory; [3]) was 6, the “Plant response rating, Morningglory” value (morningglory; [4]) was 0 and the “Morningglory plant response rating” value (morningglory; [5]) was 0. The “Morningglory plant response rating (0 to 10 scale)” value (morningglory; Preemergence, Rate 250 g/ha) was 0, the “Morningglory plant response rating” value (morningglory; [7]) was 2 and the “Plant response rating, Morningglory” value (morningglory; [6]) was 5. The “Blackgrass plant response rating” value (blackgrass; [1]) was 0, the “Blackgrass plant response rating” value (blackgrass; [2]) was 3 and the “Plant response rating, Blackgrass” value (blackgrass; [3]) was 7. The “Plant response rating, Blackgrass” value (blackgrass; [4]) was 0, the “Blackgrass plant response rating” value (blackgrass; [5]) was 2 and the “Blackgrass plant response rating (0 to 10 scale)” value (blackgrass; Preemergence, Rate 250 g/ha) was 2. The “Plant response rating, Blackgrass” value (blackgrass; [6]) was 4, the “Bedstraw plant response rating” value (bedstraw; Postemergence, scale of 0 to 10, 0 is no effect, 10 is complete control) was 0 and the “Plant response rating, Bedstraw” value (bedstraw; Preemergence, scale of 0 to 10 where 0 is no effect and 10 is complete control) was 0. For the same compound, the “Cocklebur plant response rating” value (cocklebur; [1]) was 0, the “Cocklebur plant response rating” value (cocklebur; [2]) was 0 and the “Plant response rating, Cocklebur” value (cocklebur; [3]) was 2. The “Plant response rating, Cocklebur” value (cocklebur; [4]) was 0, the “Cocklebur plant response rating” value (cocklebur; [5]) was 0 and the “Cocklebur plant response rating (0 to 10 scale)” value (cocklebur; Preemergence, Rate 250 g/ha) was 0. For the same compound, the “Cocklebur plant response rating” value (cocklebur; [7]) was 3, the “Plant response rating, Cocklebur” value (cocklebur; [6]) was 2 and the “Giant foxtail plant response rating” value (giant foxtail; [1]) was 5. For the same compound, the “Giant foxtail plant response rating” value (giant foxtail; [2]) was 8, the “Plant response rating, Giant foxtail” value (giant foxtail; [3]) was 9 and the “Plant response rating, Giant foxtail” value (giant foxtail; [4]) was 9. For the same compound, the “Giant foxtail plant response rating” value (giant foxtail; [5]) was 10, the “Giant foxtail plant response rating (0 to 10 scale)” value (giant foxtail; Preemergence, Rate 250 g/ha) was 10 and the “Giant foxtail plant response rating” value (giant foxtail; [7]) was 10. The “Plant response rating, Giant foxtail” value (giant foxtail; [6]) was 8.
